For 7 compounds, IC50 and inhibition in vivo results are on record in US9296734B2 (AMGEN INC., priority 2013, dated 2016).

As usually defined, the IC50 is the concentration that gives 50% inhibition.

The structures appear in SMILES notation. Read-outs that look alike come from different tables or passages of the source.

Assay [1] has as its target Beta Secretase enzyme (BACE) (Homo sapiens (Human), UniProt P56817). The assay can be described thus: In vitro enzymatic BACE FRET assay. The format is biochemical. The settings on record: read-out: BACE 1 FRET assay IC50. The method in brief: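 A quenched fluorophore-peptide spanning the BACE cleavage site served as substrate at 50 nM, with one-hour incubation in pH 4.2 acetate buffer containing 100 uM genapol and 10% DMSO final. Fluorescence was measured after quenching with Tris to neutral pH.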

The subject of assay [2] is Aβ40 in conditioned medium of cells stably expressing Amyloid Precursor Protein (APP). The experiment in a line: In vitro BACE cell-based assay (Aβ40 sandwich ELISA). The settings on record: Homo sapiens, read-out: HEK cell assay IC50. The gist of the method: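 Aβ40 in supernatants was measured by time-resolved fluorescence sandwich ELISA using pAb40 capture and biotinylated 6E10 detection, with antibody incubations at 4 °C. Stable APP cells were exposed to compounds for 24 h in a 10-point series (top dose 100 or 10 µM, 0.1% DMSO). IC50 was fitted from the concentration-response.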
On the technique in general: ELISA stands for enzyme-linked immunosorbent assay.

Assay [3] deals with Cathepsin D (Cat D) (Homo sapiens (Human), UniProt P07339). The experiment in a line: In vitro enzymatic Cathepsin D (Cat D) FRET assay. It is filed as biochemical. The note with it: read-out: CatD IC50. The gist of the method: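 CHO-expressed recombinant Cat D cleaves a fluorophore/quencher FRET peptide (20 nM) in 0.05 M citrate pH 3.5, 5 mM CHAPS, 10% DMSO final, over 1 h. Tris addition neutralizes pH to stop the reaction; fluorescence read at excitation 500 nm, emission 580 nm.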
Cathepsin D (Cat D), sequence (P07339 65-412, species assumed): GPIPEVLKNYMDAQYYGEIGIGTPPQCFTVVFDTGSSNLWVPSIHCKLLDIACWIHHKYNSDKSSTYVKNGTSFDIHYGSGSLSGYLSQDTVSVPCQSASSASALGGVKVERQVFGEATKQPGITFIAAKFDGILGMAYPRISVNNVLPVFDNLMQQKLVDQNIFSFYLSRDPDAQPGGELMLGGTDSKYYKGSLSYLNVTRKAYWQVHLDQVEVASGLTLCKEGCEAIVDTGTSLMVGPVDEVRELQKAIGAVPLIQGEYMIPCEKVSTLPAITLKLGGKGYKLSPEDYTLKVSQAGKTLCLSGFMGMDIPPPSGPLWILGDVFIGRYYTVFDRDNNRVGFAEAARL

Assay [4] relates to Abeta 40 in CSF and brain. The assay can be described thus: In vivo inhibition of beta-secretase: Abeta 40 reduction in CSF and brain of the rat. The note with it: 10 mpk (unless otherwise noted), after 4 hrs. An excerpt:
In Vivo Inhibition of Beta-Secretase
Several animal models, including mouse, rat, dog, and monkey, may be used to screen for inhibition of beta-secretase activity in vivo following administration of a test compound sample. Animals used in this invention can be wild type, transgenic, or gene knockout animals. […] A separate group of animals receive 2% hydroxypropyl methylcellulose, 1% Tween80 alone, containing no test compound, and serve as a vehicle-control group. At the end of the test period, animals are sacrificed and brain tissues, plasma or cerebrospinal fluid are collected. […] Homogenates are centrifuged at 355,000 g, 4° C. for 30 minutes. CSF or brain supernatants are then analyzed for the presence of A-beta peptide by specific sandwich ELISA assays based on ECL (Electrochemiluminescence) technology. For example, rat Abeta40 is measured using biotinylated-4G8 (Signet) as a capture antibody and Fab40 (an in-house antibody specific to the C-terminal of Abeta40) as a detection antibody.
Actual vehicles used: Oral: 2% HPMC, 1% Tween80, pH 2.2

The mark [5] stands for this setting: HEK293, average IC50, HEK cells.
Where [6] appears, read: Abeta 40, rat CSF, read-out: % reduction of rat CSF levels at 10 pmk.
The mark [7] stands for this setting: Abeta 40, rat brain, read-out: % reduction of rat brain levels at 10 mpk.

Beta Secretase enzyme (BACE), sequence (P56817 46-501): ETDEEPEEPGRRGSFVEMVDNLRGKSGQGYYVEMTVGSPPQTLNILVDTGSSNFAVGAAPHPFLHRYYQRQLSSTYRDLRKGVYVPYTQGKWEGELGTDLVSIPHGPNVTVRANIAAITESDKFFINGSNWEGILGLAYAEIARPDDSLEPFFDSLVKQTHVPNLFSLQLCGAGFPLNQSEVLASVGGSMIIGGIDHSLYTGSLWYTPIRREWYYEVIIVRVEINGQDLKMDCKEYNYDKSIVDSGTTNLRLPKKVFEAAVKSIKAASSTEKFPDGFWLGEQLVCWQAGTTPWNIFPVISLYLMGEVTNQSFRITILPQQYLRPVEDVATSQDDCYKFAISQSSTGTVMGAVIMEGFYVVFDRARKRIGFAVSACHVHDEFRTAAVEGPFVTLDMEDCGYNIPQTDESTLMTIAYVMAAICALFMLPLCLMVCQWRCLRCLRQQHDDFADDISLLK

Regarding `NC1=N[C@](CF)(c2cc(NC(=O)c3ccc(Cl)cn3)ccc2F)C[C@@H](C(F)(F)F)O1` [Example 3, N-(3-((4S,6S)-2-amino-4-(fluoromethyl)-6-(trifluoromethyl)-5,6-dihydro-4H-1,3-oxazin-4-yl)-4-fluorophenyl)-5-chloropicolinamide], the figures for the IC50 in assay [1] (average IC50), in assay [2] (setting [5]) and in assay [3] (average IC50) were 0.018 µM, 0.032 µM and above 400 µM, respectively. Also, the inhibition in vivo at 10 mg/kg worked out at 72% in assay [4] (setting [6]) and 58% in assay [4] (setting [7]).

For `N#Cc1cnc(C(=O)Nc2ccc(F)c([C@]3(CF)C[C@@H](C(F)(F)F)OC(N)=N3)c2)c(Cl)c1` [Example 32, N-(3-((4S,6S)-2-amino-4-(fluoromethyl)-6-(trifluoromethyl)-5,6-dihydro-4H-1,3-oxazin-4-yl)-4-fluorophenyl)-3-chloro-5-cyano-2-pyridinecarboxamide], the values for the concentration for half-maximal inhibition (IC50) in assay [1] (average IC50), in assay [2] (setting [5]) and in assay [3] (average IC50) were 0.0285 µM, 0.0544 µM and above 400 µM, respectively. Moreover, the inhibition in vivo at 10 mg/kg in assay [4] (setting [6]) was 21%; in assay [4] (setting [7]), -3%.

As for `COc1cnc(C(=O)Nc2ccc(F)c([C@]3(CF)C[C@@H](C(F)(F)F)OC(N)=N3)c2)c(Cl)c1` [Example 50, N-(3-((4S,6S)-2-amino-4-(fluoromethyl)-6-(trifluoromethyl)-5,6-dihydro-4H-1,3-oxazin-4-yl)-4-fluorophenyl)-3-chloro-5-methoxypicolinamide], the IC50 in assay [1] (average IC50) was 0.0238 µM; in assay [2] (setting [5]), 0.0265 µM; in assay [3] (average IC50) it was above 400 µM. The inhibition in vivo at 10 mg/kg in assay [4] (setting [6]) was found to be 50%; in assay [4] (setting [7]), 22%.

`C[C@@]1(c2cc(NC(=O)c3ccc(Cl)cn3)cnc2F)C[C@@H](C(F)(F)F)OC(N)=N1` [Example 60, N-(5-((4S,6S)-2-amino-4-methyl-6-(trifluoromethyl)-5,6-dihydro-4H-1,3-oxazin-4-yl)-6-fluoropyridin-3-yl)-5-chloropicolinamide]: the results for the IC50 in assay [1] (average IC50), in assay [2] (setting [5]) and in assay [3] (average IC50) were 0.0528 µM, 0.0135 µM and above 400 µM, respectively. The values for the inhibition in vivo at 10 mg/kg in assay [4] (setting [6]) and in assay [4] (setting [7]) were 79% and 72%, respectively.

Consider `C[C@@]1(c2nc(NC(=O)c3ccc(C#N)cn3)ccc2F)C[C@@H](C(F)(F)F)OC(N)=N1` [Example 79, N-(6-((4S,6S)-2-amino-4-methyl-6-(trifluoromethyl)-5,6-dihydro-4H-1,3-oxazin-4-yl)-5-fluoropyridin-2-yl)-5-cyanopicolinamide], for which the IC50 in assay [1] (average IC50) is 0.0304 µM; in assay [2] (setting [5]), 0.0115 µM; in assay [3] (average IC50), above 400 µM. The inhibition in vivo at 10 mg/kg stood at 83% in assay [4] (setting [6]) and 79% in assay [4] (setting [7]).

Consider `NC1=N[C@](CF)(c2nc(NC(=O)c3nn(C(F)F)cc3Cl)ccc2F)C[C@@H](C(F)(F)F)O1` [Example 135, N-(6-((4S,6S)-2-amino-4-(fluoromethyl)-6-(trifluoromethyl)-5,6-dihydro-4H-1,3-oxazin-4-yl)-5-fluoropyridin-2-yl)-4-chloro-1-(difluoromethyl)-1H-pyrazole-3-carboxamide], for which the IC50 in assay [1] (average IC50, BACE enzyme assay) came out at 0.052 µM; in assay [2] (HEK293, average IC50, HEK cell assay), 0.031 µM; in assay [3] (average IC50, cathepsin D enzyme assay), 1170 µM. Also, the inhibition in vivo at 10 mg/kg was 64% in assay [4] (setting [6]) and 55% in assay [4] (setting [7]).

`COc1ccc(C(=O)Nc2cc(F)c(F)c([C@]3(C)C[C@@H](C(F)(F)F)OC(N)=N3)c2)nc1` [Example 201, N-(3-((4S,6S)-2-amino-4-methyl-6-(trifluoromethyl)-5,6-dihydro-4H-1,3-oxazin-4-yl)-4,5-difluorophenyl)-5-methoxypicolinamide]: the IC50 in assay [3] (average) was 762 µM. In addition, the inhibition in vivo at 10 mg/kg was found to be 75% in assay [4] (setting [6]) and 76% in assay [4] (setting [7]).
